According to patent US20200031778A1, “NOVEL 5-SUBSTITUTED IMIDAZOLYLMETHYL DERIVATIVES” (Bayer CropScience Aktiengesellschaft, priority 2016, published 2020):

Assay: Log P by HPLC on reversed phase columns (EEC directive 79/831 Annex V.A8; methods [a], [b], [c])
Format: physicochemical
Details: not given
Procedure, shortened: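 Log P derived from retention times, interpolated linearly between bracketing straight-chain alkan-2-ones (3–16 carbons) of known Log P. Eluents ran acetonitrile 10% to 95% against water with 0.1% formic acid ([a], acidic), 0.001 M ammonium acetate ([b], neutral) or 0.1% phosphoric acid ([c], acidic); UV read-out.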

LogP	Compound
2.35^[a]	N#Cc1cncn1CC(O)(c1ccccc1C(F)(F)F)C1(Cl)CC1 (stereo not drawn) [I-344]
1.86^[a]	OC(Cn1cncc1Cl)c1ccc(Oc2ccc(Cl)nc2)cc1Cl (stereo not drawn) [I-42]
2.31^[a]	N#Cc1cncn1CC(O)(c1cc(Br)ccc1F)C1(F)CC1 (stereo not drawn) [I-631]
4.15^[a]	N#Cc1cncn1CC(O)(c1ccc(C#CC2CCCC2)cc1Cl)C1(Cl)CC1 (stereo not drawn) [I-656]
2.29^[a]	N#Cc1cncn1CC(O)(CC1CC1)c1cc(F)cc(F)c1 (stereo not drawn) [I-502]
3.04^[a]	CC(O)(Cn1cncc1Cl)c1ccc(Oc2ccc(I)cc2)cc1Cl (stereo not drawn) [I-166]
3.35^[a]	CCCCCCC(O)(CC1CC1)Cn1cncc1C#N (stereo not drawn) [I-427]
2.64^[a]	N#Cc1cncn1CC(O)(C#CC1CCCCC1)C1(F)CC1 (stereo not drawn) [I-543]
3.29^[a]	N#Cc1cncn1CC(O)(C#CCC1CCCCC1)CC1CC1 (stereo not drawn) [I-428]
2.36^[a]	N#Cc1cncn1CC(O)(c1cc(F)c(F)cc1Br)C1(F)CC1 (stereo not drawn) [I-688]
3.27^[a]	CC(O)(Cn1cncc1C#N)c1cnc(Oc2ccc(C(F)(F)F)cc2)cc1Br (stereo not drawn) [I-253]
3.83^[a]	CCCCCC(O)(Cn1cncc1C#N)c1ccc(Cl)cc1Cl (stereo not drawn) [I-302]
4.05^[a]	OC(C#CCC1CCCCC1)(Cn1cncc1C(F)(F)F)C1(Cl)CC1 (stereo not drawn) [I-601]
3.22^[a]	CC(C)(C)C(O)(Cn1cncc1C#N)c1cc(Cl)cc(Cl)c1 (stereo not drawn) [I-463]
1.36^[a]	C#CC(O)(Cn1cncc1C#N)C1(Cl)CC1 (stereo not drawn) [I-670]
2.94^[a]	CC(O)(Cn1cncc1C#N)c1cnc(Oc2ccc(C(F)F)cc2)cc1C(F)(F)F (stereo not drawn) [I-234]
2.39^[a]	OC(Cn1cncc1Cl)c1ccc(Oc2ccc(Cl)cc2)cc1F (stereo not drawn) [I-32]
4.16^[a]	N#Cc1cncn1CC(O)(CCCC1CCCCC1)C1CCC1 (stereo not drawn) [I-665]
2.89^[a]	CCCCC(O)(Cn1cncc1C#N)c1ccccc1Br (stereo not drawn) [I-283]
2.34^[a]	N#Cc1cncn1CC(O)(CC1CC1)c1c(F)cc(F)cc1F (stereo not drawn) [I-511]
2.43^[a]	N#Cc1cncn1CC(O)(c1ccc(Br)cc1F)C1(F)CC1 (stereo not drawn) [I-403]
3.00^[a]	N#Cc1cncn1CC(O)(CCC1CCCC1)C1(F)CC1 (stereo not drawn) [I-598]
2.68^[a]	N#Cc1cncn1CC(O)(c1cc(Cl)c(Cl)cc1F)C1(F)CC1 (stereo not drawn) [I-589]
3.00^[a]	OC(Cn1cncc1Cl)c1ccc(Oc2ccc(C(F)(F)F)cc2)cc1C(F)(F)F (stereo not drawn) [I-35]

LogP	Compound
2.64^[a]	N#Cc1cncn1CC(O)(c1ccc(Cl)c(F)c1Cl)C1(Cl)CC1 (stereo not drawn) [I-617]
2.92^[a]	CC(C)(C)CC(O)(Cn1cncc1C#N)c1ccccc1F (stereo not drawn) [I-274]
3.44^[a]	CC(O)(Cn1cncc1C#N)c1cnc(Oc2ccc(Cl)cc2)cc1C(F)(F)F (stereo not drawn) [I-249]
2.98^[a]	N#Cc1cncn1CC(O)(C#CC1(c2ccc(F)cc2)CC1)C1(Cl)CC1 (stereo not drawn) [I-605]
2.47^[a]	N#Cc1cncn1CC(O)(c1ccc(F)cc1C(F)(F)F)C1CC1 (stereo not drawn) [I-467]
3.80^[a]	OC(Cn1cncc1C(F)(F)F)c1ccc(Oc2ccc(Cl)cc2)cc1Cl (stereo not drawn) [I-39]
2.30^[a]	N#Cc1cncn1CC(O)(C#CC1CCCC1)C1(F)CC1 (stereo not drawn) [I-453]
2.48^[a]	CC(O)(Cn1cncc1Cl)c1cnc(Oc2ccc(Cl)cc2)cc1Br (stereo not drawn) [I-177]
2.90^[a]	N#Cc1cncn1CC(O)(C#CC1(c2ccccc2)CC1)C1(Cl)CC1 (stereo not drawn) [I-606]
2.21^[a]	N#Cc1cncn1CC(O)(c1ccc(F)cc1)C1(Cl)CC1 (stereo not drawn) [I-248]
3.22^[a]	N#Cc1cncn1CC(O)(CC1CC1)c1cc(Cl)c(Cl)c(Cl)c1 (stereo not drawn) [I-529]
3.10^[a]	CCCCCC(O)(Cn1cncc1C#N)c1ccc(Cl)cc1 (stereo not drawn) [I-286]
2.18^[a]	N#Cc1cncn1CC(O)(CC1CC1)c1c(F)cccc1F (stereo not drawn) [I-513]
3.11^[a]	N#Cc1cncn1CC(O)(C#CCC1CCCCC1)C1(F)CC1 (stereo not drawn) [I-539]
3.83^[a]	N#Cc1cncn1CC(O)(CCCC1CCCCC1)C1CC1 (stereo not drawn) [I-661]
1.62^[a]	N#Cc1cncn1CC(O)c1ccccc1Br (stereo not drawn) [I-140]
2.76^[a]	N#Cc1cncn1CC(O)(c1ccc(Br)cc1Cl)C1(F)CC1 (stereo not drawn) [I-376]
2.63^[a]	Cc1c(Cl)ccc(C(O)(Cn2cncc2C#N)C2(F)CC2)c1F (stereo not drawn) [I-685]
2.18^[a]	N#Cc1cncn1CC(O)(c1cc(F)c(F)cc1F)C1(F)CC1 (stereo not drawn) [I-521]
2.73^[a]	CCCCC(O)(Cn1cncc1C#N)c1ccc(F)cc1F (stereo not drawn) [I-262]
2.94^[a]	N#Cc1cncn1CC(O)c1ccc(Oc2ccc(Cl)cc2)cc1F (stereo not drawn) [I-54]
3.65^[a]	CCCC#Cc1ccc(C(O)(Cn2cncc2C#N)C2(Cl)CC2)c(Cl)c1 (stereo not drawn) [I-655]
2.36^[a]	N#Cc1cncn1CC(O)(c1c(F)cc(Cl)cc1F)C1(F)CC1 (stereo not drawn) [I-519]
3.99^[a]	COC(=O)COC(Cn1cncc1C#N)c1ccc(Oc2ccc(Br)cc2)cc1C(F)(F)F (stereo not drawn) [I-94]

LogP	Compound
2.96^[a]	N#Cc1cncn1CC(O)c1cnc(Oc2ccc(C(F)(F)F)cc2)cc1Cl (stereo not drawn) [I-127]
2.82^[a]	OC(Cn1cncc1Cl)c1ccc(Oc2ccc(C(F)(F)F)cc2)cc1Cl (stereo not drawn) [I-09]
3.55^[a]	C[Si](C)(C)CC(O)(Cn1cncc1C#N)c1ccc(C(F)(F)F)cc1 (stereo not drawn) [I-269]
2.82^[a]	OC(Cn1cncc1Cl)c1ccc(Oc2ccc(OC(F)(F)F)cc2)cc1Cl (stereo not drawn) [I-04]
2.62^[a]	CC(O)(Cn1cncc1Cl)c1cnc(Oc2ccc(Cl)cc2)cc1C(F)(F)F (stereo not drawn) [I-175]
1.92^[a]	CC(C)(C)CC(C)(O)Cn1cncc1C#N (stereo not drawn) [I-239]
2.43^[a]	CC(O)(Cn1cncc1C#N)c1cnc(Oc2ccc(Cl)nc2)cc1C(F)(F)F (stereo not drawn) [I-360]
1.07^[a]	COc1cc(F)ccc1C(O)Cn1cncc1Cl (stereo not drawn) [I-07]
2.82^[a]	CCCC(C)C#CC(O)(Cn1cncc1C#N)C1(Cl)CC1 (stereo not drawn) [I-658]
3.25^[a]	CCCCC(O)(Cn1cncc1C#N)c1ccc(OC(F)(F)F)cc1 (stereo not drawn) [I-265]
2.87^[a]	N#Cc1cncn1CC(O)c1cnc(Oc2ccc(Cl)cc2)cc1C(F)(F)F (stereo not drawn) [I-120]
3.52^[a]	CCCC#Cc1ccc(C(O)(Cn2cncc2C#N)C2(F)CC2)c(Cl)c1 (stereo not drawn) [I-641]
4.92^[a]	CCCOC(Cn1cncc1C#N)c1ccc(Oc2ccc(Cl)cc2)cc1C(F)(F)F (stereo not drawn) [I-85]
2.18^[a]	N#Cc1cncn1CC(O)(c1ccc(F)cc1F)C1CC1 (stereo not drawn) [I-410]
2.75^[a]	CC(O)(Cn1cncc1Br)c1ccc(Oc2ccc(Cl)cc2)cc1Cl (stereo not drawn) [I-198]
3.46^[a]	N#Cc1cncn1CC(O)(c1ccc(F)cc1Br)C1CCCCC1 (stereo not drawn) [I-479]
2.51^[a]	CC(O)(Cn1cncc1Cl)c1ccc(Oc2ccc(C(F)(F)F)cc2)cc1 (stereo not drawn) [I-161]
3.23^[a]	CCCC(O)(Cn1cncc1C#N)c1ccc(C(F)(F)F)cc1Cl (stereo not drawn) [I-421]
1.29^[a]	Cc1ccccc1C(O)(Cn1cncc1C#N)C1(Cl)CC1 (stereo not drawn) [I-278]
3.35^[a]	N#Cc1cncn1CC(O)c1ccc(Oc2ccc(S(F)(F)(F)(F)F)cc2)nc1C(F)(F)F (stereo not drawn) [I-146]
2.51^[a]	N#Cc1cncn1CC(O)(CC1CC1)c1cc(F)c(F)c(F)c1 (stereo not drawn) [I-501]
2.28^[a]	OC(Cn1cncc1F)c1ccc(Oc2ccc(Br)cc2)nc1C(F)(F)F (stereo not drawn) [I-103]
2.78^[a]	CC(O)(Cn1cncc1Cl)c1ccc(Oc2ccc(C(F)(F)F)cc2)c(Br)c1 (stereo not drawn) [I-160]
3.15^[a]	N#Cc1cncn1CC(O)c1ccc(Oc2ccc(Cl)cc2)nc1C(F)(F)F (stereo not drawn) [I-124]

LogP	Compound
3.37^[a]	OC(C#CC1CCCC1)(Cn1cncc1C(F)(F)F)C1(Cl)CC1 (stereo not drawn) [I-603]
3.50^[a]	CC(C)(C)CC(O)(Cn1cncc1C#N)c1ccc(OC(F)(F)F)cc1 (stereo not drawn) [I-275]
2.96^[a]	OC(Cn1cncc1Br)c1ccc(Oc2ccc(C(F)(F)F)cc2)cc1C(F)(F)F (stereo not drawn) [I-38]
2.63^[a]	N#Cc1cncn1CC(O)c1ccc(Oc2ccc(Br)cn2)cc1Cl (stereo not drawn) [I-70]
2.78^[a]	N#Cc1cncn1CC(O)(c1ccc(Cl)cc1Br)C1(Cl)CC1 (stereo not drawn) [I-384]
3.11^[a]	CCc1ccc(C#CC(O)(Cn2cncc2C#N)C2(Cl)CC2)cc1 (stereo not drawn) [I-320]
4.64^[a]	CCOC(Cn1cncc1C#N)c1ccc(Oc2ccc(Br)cc2)cc1Br (stereo not drawn) [I-64]
3.27^[a]	CC(C)(C)CC(O)(Cn1cncc1C#N)c1ccccc1Br (stereo not drawn) [I-308]
2.49^[a]	N#Cc1cncn1CC(O)(c1cc(F)c(F)cc1Cl)C1(Cl)CC1 (stereo not drawn) [I-584]
2.75^[a]	N#Cc1cncn1CC(O)c1ccc(Oc2ccc(Cl)cn2)cc1C(F)(F)F (stereo not drawn) [I-66]
2.39^[a]	CCCC(O)(Cn1cncc1C#N)c1ccc(F)cc1F (stereo not drawn) [I-400]
2.40^[a]	N#Cc1cncn1CC(O)(c1ccc(F)c(Br)c1)C1(F)CC1 (stereo not drawn) [I-470]
2.39^[a]	CCCC(O)(Cn1cncc1C#N)c1ccc(Cl)cc1 (stereo not drawn) [I-289]
3.11^[a]	CC(C)(C)CC(O)(Cn1cncc1C#N)c1ccc(Cl)cc1 (stereo not drawn) [I-223]
2.27^[a]	N#Cc1cncn1CC(O)(c1c(F)cc(F)cc1Br)C1(F)CC1 (stereo not drawn) [I-547]
3.07^[a]	CC(C)(C)C(O)(Cn1cncc1C#N)c1cc(F)c(F)c(Cl)c1 (stereo not drawn) [I-544]
2.25^[a]	N#Cc1cncn1CC(O)(c1cc(Cl)ccc1F)C1(F)CC1 (stereo not drawn) [I-522]
2.51^[a]	N#Cc1cncn1CC(O)(c1ccc(Cl)c(Cl)c1)C1(F)CC1 (stereo not drawn) [I-487]
3.21^[a]	N#Cc1cncn1CC(O)c1ccc(Oc2ccc(Cl)cc2)cc1Br (stereo not drawn) [I-59]
2.17^[a]	CC(O)(Cn1cncc1F)c1cnc(Oc2ccc(C(F)F)cc2)cc1C(F)(F)F (stereo not drawn) [I-230]
2.86^[a]	N#Cc1cncn1CC(O)(c1cc(Cl)c(Br)cc1Cl)C1(F)CC1 (stereo not drawn) [I-684]
3.15^[a]	COC(Cn1cncc1Cl)c1ccc(Oc2ccc(Cl)cc2)cc1C(F)F (stereo not drawn) [I-75]

Compound	LogP
N#Cc1cncn1CC(O)(c1cnc(Cl)cc1Br)C1(F)CC1 (stereo not drawn) [I-560]	1.98^[a]

Same assay, conditions: reversed phase HPLC column; method [a]: LC-UV, acidic range, 0.1% formic acid in water and acetonitrile as eluent (linear gradient from 10% to 95% acetonitrile)

chromatographic logP	Compound
1.55	N#Cc1cncn1CC(=O)c1ccccc1 [IX-101]
